Test results: article doi:10.1101/2025.10.08.681114v1 (biorxiv, 2025)

Biological target: CHI3L1 (hCHI3L1, CHI3L1-His, YKL-40) (Homo sapiens, UniProt P36222)
Assay: microscale thermophoresis dose-response
Type: binding

CHI3L1 (hCHI3L1, CHI3L1-His, YKL-40), sequence (P36222 22-383): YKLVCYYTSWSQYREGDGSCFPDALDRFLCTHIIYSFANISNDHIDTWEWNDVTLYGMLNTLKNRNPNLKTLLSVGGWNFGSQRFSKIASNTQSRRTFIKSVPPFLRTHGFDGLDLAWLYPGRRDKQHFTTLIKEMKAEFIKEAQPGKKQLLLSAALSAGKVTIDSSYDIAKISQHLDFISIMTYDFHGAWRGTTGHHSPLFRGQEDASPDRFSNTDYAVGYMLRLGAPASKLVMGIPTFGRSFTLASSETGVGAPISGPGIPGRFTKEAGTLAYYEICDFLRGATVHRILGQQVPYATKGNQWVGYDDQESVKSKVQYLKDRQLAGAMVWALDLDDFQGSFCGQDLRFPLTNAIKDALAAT

COc1cc2cc(C3CCN(C(=O)c4csc(C)c4)CC3)ncc2cc1C [A9, compound A9]
Kd: 182 ± 18 µM
